We go through 20 molecules from patent US12083124B2 (Incyte Corporation, priority 2019, dated 2024).

Test [1] addresses wild-type un-phosphorylated FGFR1 (Homo sapiens, UniProt P11362). Nature of the test: FGFR Enzymatic Assay (FRET peptide phosphorylation), FGFR1. Particulars: pre-incubated for 4 hours.
Test [2] has as its target wild-type un-phosphorylated FGFR3 (Homo sapiens, UniProt P22607). The experiment in a line: FGFR Enzymatic Assay (FRET peptide phosphorylation), FGFR3.
The target of test [3] is wild-type un-phosphorylated FGFR2 (Homo sapiens, UniProt P21802). Nature of the test: FGFR Enzymatic Assay (FRET peptide phosphorylation), FGFR2.
Chain of wild-type un-phosphorylated FGFR2 (P21802 22-821): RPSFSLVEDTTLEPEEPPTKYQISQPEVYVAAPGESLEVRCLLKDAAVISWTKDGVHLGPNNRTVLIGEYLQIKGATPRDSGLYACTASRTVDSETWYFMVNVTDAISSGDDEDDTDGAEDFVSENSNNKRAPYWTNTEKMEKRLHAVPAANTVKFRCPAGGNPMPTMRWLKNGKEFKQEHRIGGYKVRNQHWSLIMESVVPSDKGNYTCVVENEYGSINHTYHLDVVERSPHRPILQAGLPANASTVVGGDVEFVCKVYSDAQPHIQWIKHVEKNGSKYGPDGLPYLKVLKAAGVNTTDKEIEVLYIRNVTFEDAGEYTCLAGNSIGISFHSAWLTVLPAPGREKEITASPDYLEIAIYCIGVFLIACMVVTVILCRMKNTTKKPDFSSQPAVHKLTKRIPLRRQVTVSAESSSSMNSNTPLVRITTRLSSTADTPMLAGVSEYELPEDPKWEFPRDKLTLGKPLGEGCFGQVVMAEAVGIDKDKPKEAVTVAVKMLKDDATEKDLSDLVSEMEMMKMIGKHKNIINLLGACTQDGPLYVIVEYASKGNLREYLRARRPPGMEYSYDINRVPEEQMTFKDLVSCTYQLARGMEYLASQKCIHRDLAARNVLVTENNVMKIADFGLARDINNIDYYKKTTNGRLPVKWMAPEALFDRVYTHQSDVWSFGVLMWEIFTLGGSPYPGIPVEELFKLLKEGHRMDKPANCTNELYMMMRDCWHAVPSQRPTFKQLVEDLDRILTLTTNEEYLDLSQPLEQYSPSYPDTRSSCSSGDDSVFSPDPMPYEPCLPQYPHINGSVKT
Test [4] concerns the target wild-type un-phosphorylated FGFR4 (Homo sapiens, UniProt P22455). The experiment in a line: FGFR Enzymatic Assay (FRET peptide phosphorylation), FGFR4.
Experimental: The inhibitor potency of the exemplified compounds was determined in an enzyme discontinuous assay that measures peptide phosphorylation using FRET measurements to detect product formation. Inhibitors were serially diluted in DMSO and a volume of 0.2 μL was transferred to the wells of a 384-well plate. […] Appropriate controls (enzyme blank and enzyme with no inhibitor) were included on the plate. […] The 10 μL/well reaction concentration of the peptide substrate was 500 nM whereas the ATP concentration was maintained near or below the ATP Km. The ATP Km values were pre-determined in a separate series of experiments. The reaction plate was incubated at 25° C. for 1 hr and the reactions were ended with the addition of 5 μL/well of quench solution (50 mM Tris, 150 mM NaCl, 0.5 mg/mL BSA, pH 7.8; 45 mM EDTA, 600 nM staurosporin, with Perkin Elmer Lance Reagents at 3.75 nM Eu-antibody PY20 and 180 nM APC-Streptavidin). The plate was allowed to equilibrate for ˜10 minutes at ambient temperature before scanning on a PheraStar plate reader (BMG Labtech) instrument.
Either GraphPad prism or XLfit was used to analyze the data. The IC50 values were derived by fitting the data to a four parameter logistic equation producing a sigmoidal dose-response curve with a variable Hill coefficient. Prism equation: Y=Bottom+(Top-Bottom)/(1+10^((Log IC50-X)*Hill slope)); XLfit equation: Y=(A+((B−A)/(1+((X/C)^D)))) where X is the logarithm of inhibitor concentration and Y is the response.
GraphPad prism3 was used to analyze the data. The IC50 values were derived by fitting the data to the equation for a sigmoidal dose-response with a variable slope. Y=Bottom+(Top-Bottom)/(1+10^((Log IC50-X)*Hill Slope)) where X is the logarithm of concentration and Y is the response.
The data in Table 1 was measured in wild-type un-phosphorylated FGFR1, FGFR2, FGFR3, and FGFR4 proteins.
Where [5] appears, read: FGFR1, wild-type un-phosphorylated FGFR1.
The mark [6] stands for this setting: read-out: FGFR1, wild-type un-phosphorylated FGFR1.
[7] abbreviates: read-out: FGFR2, wild-type un-phosphorylated FGFR2, pre-incubated for 4 hours.
The mark [8] stands for this setting: read-out: FGFR4, wild-type un-phosphorylated FGFR4, pre-incubated for 4 hours.

The structures appear in SMILES notation. Like-named read-outs stand apart in the source and are kept apart here.

Chain of wild-type un-phosphorylated FGFR1 (P11362 22-822): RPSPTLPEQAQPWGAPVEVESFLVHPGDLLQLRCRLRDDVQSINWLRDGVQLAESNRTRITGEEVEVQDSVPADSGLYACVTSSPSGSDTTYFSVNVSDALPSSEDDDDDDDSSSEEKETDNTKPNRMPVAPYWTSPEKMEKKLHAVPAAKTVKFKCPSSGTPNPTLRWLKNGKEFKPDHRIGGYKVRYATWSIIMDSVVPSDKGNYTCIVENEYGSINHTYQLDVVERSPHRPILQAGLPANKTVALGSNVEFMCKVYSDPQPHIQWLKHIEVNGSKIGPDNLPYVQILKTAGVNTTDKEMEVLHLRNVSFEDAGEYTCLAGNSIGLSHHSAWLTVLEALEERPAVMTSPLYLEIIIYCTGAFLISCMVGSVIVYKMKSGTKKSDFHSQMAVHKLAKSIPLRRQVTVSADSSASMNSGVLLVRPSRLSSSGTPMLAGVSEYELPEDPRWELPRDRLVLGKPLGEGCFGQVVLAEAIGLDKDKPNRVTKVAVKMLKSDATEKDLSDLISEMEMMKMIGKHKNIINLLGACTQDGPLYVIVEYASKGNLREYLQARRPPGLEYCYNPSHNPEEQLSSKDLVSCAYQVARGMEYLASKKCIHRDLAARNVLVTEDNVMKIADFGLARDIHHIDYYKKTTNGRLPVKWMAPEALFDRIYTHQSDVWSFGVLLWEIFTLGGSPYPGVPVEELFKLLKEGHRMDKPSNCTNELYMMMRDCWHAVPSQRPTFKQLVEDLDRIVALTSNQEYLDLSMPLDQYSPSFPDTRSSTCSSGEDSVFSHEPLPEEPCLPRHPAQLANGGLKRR
Chain of wild-type un-phosphorylated FGFR4 (P22455 22-802): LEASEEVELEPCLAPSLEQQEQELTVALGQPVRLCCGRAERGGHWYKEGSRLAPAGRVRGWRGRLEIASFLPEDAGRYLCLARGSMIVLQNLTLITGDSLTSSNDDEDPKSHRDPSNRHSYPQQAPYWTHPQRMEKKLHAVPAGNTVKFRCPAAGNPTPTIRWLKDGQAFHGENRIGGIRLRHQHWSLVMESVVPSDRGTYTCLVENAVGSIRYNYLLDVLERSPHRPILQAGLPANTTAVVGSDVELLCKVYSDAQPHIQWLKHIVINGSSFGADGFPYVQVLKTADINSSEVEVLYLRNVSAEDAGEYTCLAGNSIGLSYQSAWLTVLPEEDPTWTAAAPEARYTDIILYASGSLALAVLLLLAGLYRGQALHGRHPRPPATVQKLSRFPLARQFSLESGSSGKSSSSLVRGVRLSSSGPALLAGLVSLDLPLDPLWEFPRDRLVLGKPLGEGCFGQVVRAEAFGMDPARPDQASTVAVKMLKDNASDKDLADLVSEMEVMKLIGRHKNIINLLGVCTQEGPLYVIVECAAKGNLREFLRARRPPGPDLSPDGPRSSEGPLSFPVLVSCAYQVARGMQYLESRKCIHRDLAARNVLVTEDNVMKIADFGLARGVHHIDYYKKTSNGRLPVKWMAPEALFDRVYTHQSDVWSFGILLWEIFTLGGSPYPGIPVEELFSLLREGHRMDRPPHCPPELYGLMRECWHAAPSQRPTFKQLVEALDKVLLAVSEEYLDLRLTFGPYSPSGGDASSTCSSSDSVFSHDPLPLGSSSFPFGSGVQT
Chain of wild-type un-phosphorylated FGFR3 (P22607 23-806): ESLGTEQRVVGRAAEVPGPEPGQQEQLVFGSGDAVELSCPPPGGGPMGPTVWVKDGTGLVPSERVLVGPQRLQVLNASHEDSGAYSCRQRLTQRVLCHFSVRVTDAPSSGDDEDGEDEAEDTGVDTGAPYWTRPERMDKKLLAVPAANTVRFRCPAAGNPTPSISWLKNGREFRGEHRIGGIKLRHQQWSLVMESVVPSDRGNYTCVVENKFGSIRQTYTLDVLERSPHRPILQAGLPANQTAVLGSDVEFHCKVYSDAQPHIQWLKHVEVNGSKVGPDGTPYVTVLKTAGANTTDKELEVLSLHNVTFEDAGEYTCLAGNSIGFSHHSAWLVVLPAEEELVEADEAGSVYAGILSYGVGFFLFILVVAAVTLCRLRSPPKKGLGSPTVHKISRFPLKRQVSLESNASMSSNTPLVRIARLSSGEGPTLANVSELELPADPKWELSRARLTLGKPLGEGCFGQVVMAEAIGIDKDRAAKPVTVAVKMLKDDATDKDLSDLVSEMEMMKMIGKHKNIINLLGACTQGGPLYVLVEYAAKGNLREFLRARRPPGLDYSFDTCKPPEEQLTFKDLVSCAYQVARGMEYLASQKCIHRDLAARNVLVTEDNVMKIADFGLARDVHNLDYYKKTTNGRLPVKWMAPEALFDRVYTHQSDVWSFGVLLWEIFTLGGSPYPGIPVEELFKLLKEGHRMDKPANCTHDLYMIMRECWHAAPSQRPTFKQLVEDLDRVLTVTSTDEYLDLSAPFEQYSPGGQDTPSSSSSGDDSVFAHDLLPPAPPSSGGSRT

For the molecule `COc1cc2[nH]nc(-c3cnn(C4CN(C(C)=O)C4)c3)c2nc1-c1cccc2c1CCC2` [Example 22, 1-(3-(4-(5-(2,3-Dihydro-1H-inden-4-yl)-6-methoxy-1H-pyrazolo[4,3-b]pyridin-3-yl)-1H-pyrazol-1-yl)azetidin-1-yl)ethan-1-one], the IC50 in test [1] (setting [5]) is 40 to 100 nM; in test [2] it was less than 6 nM; in test [3], less than 6 nM; in test [4] it was 40 to 100 nM.

Consider `COc1cc2[nH]nc(-c3cnn(C4CN(C(=O)[C@@H]5CCN5C)C4)c3)c2nc1-c1cccc2c1CCC2` [Example 119, (S)-(3-(4-(5-(2,3-Dihydro-1H-inden-4-yl)-6-methoxy-1H-pyrazolo[4,3-b]pyridin-3-yl)-1H-pyrazol-1-yl)azetidin-1-yl)(1-methylazetidin-2-yl)methanone], for which the IC50 in test [1] (setting [6]) is 6 to 40 nM; in test [2], less than 6 nM; in test [3], less than 6 nM; in test [4], 40 to 100 nM.

As for `[2H]C1(O)Cc2cccc(-c3nc4c(-c5cnn(C)c5)n[nH]c4cc3OC)c2C1` (single isomer, unassigned) [Example 74, 4-(6-Methoxy-3-(1-methyl-1H-pyrazol-4-yl)-1H-pyrazolo[4,3-b]pyridin-5-yl) 2,3-dihydro-1H-inden-2-d-2-ol], the IC50 is 6 to 40 nM in test [1] (setting [6]), less than 6 nM in test [2], less than 6 nM in test [3] and greater than 100 nM in test [4].

With `COc1cc2[nH]nc(-c3ccc(OC4CCOCC4)nc3)c2nc1-c1cccc2c1CC(O)C2` (centres unmarked) [Example 96, 4-(6-Methoxy-3-(6-((tetrahydro-2H-pyran-4-yl)oxy)pyridin-3-yl)-1H-pyrazolo[4,3-b]pyridin-5-yl)-2,3-dihydro-1H-inden-2-ol], the IC50 in test [1] (setting [5]) is 40 to 100 nM; in test [2], less than 6 nM; in test [3] (setting [7]), 6 to 40 nM; in test [4], greater than 100 nM.

In the case of `COc1cc2[nH]nc(-c3cnn([C@H]4CCN(C(=O)[C@H]5C[C@@](C)(O)C5)C4)c3)c2nc1-c1cccc2c1CCC2` [Example 146, ((S)-3-(4-(5-(2,3-Dihydro-1H-inden-4-yl)-6-methoxy-1H-pyrazolo[4,3-b]pyridin-3-yl)-1H-pyrazol-1-yl)pyrrolidin-1-yl)((1s,3r)-3-hydroxy-3-methylcyclobutyl)methanone], the IC50 in test [1] (setting [6]) is 6 to 40 nM; in test [2], less than 6 nM; in test [3] it was less than 6 nM; in test [4] (setting [8]), 6 to 40 nM.

As for `COc1cc2[nH]nc(-c3cnn(CCO)c3)c2nc1-c1cccc2c1CCC2` [Example 31, 2-(4-(5-(2,3-Dihydro-1H-inden-4-yl)-6-methoxy-1H-pyrazolo[4,3-b]pyridin-3-yl)-1H-pyrazol-1-yl)ethan-1-ol], the IC50 in test [1] (setting [5]) is 40 to 100 nM; in test [2], less than 6 nM; in test [3], less than 6 nM; in test [4] it was 40 to 100 nM.

Take `COc1cc2[nH]nc(-c3cnn(C4CCN(C(=O)N(C)C)CC4)c3)c2nc1-c1cccc2c1CCC2` [Example 19, 4-(4-(5-(2,3-Dihydro-1H-inden-4-yl)-6-methoxy-1H-pyrazolo[4,3-b]pyridin-3-yl)-1H-pyrazol-1-yl)-N,N-dimethylpiperidine-1-carboxamide]: the IC50 is 40 to 100 nM in test [1] (setting [5]), less than 6 nM in test [2], less than 6 nM in test [3] and greater than 100 nM in test [4].

Regarding `COCC(=O)N(C)C1CC(c2ccc(-c3n[nH]c4cc(OC)c(-c5cccc6c5CCC6)nc34)cn2)C1` (centres unmarked) [Example 188, N-(3-(5-(5-(2,3-Dihydro-1H-inden-4-yl)-6-methoxy-1H-pyrazolo[4,3-b]pyridin-3-yl)pyridin-2-yl)cyclobutyl)-2-methoxy-N-methylacetamide], the IC50 in test [1] (setting [6]) is 6 to 40 nM; in test [2], less than 6 nM; in test [3], less than 6 nM; in test [4] (setting [8]) it was 6 to 40 nM.

For the molecule `COc1cc2[nH]nc(-c3cnn(C4CN(C(=O)[C@@H]5CCN5C(C)C)C4)c3)c2nc1-c1cccc2c1CCC2` [Example 142, (S)-(3-(4-(5-(2,3-Dihydro-1H-inden-4-yl)-6-methoxy-1H-pyrazolo[4,3-b]pyridin-3-yl)-1H-pyrazol-1-yl)azetidin-1-yl)(1-isopropylazetidin-2-yl)methanone], the IC50 in test [1] (setting [6]) was 6 to 40 nM; in test [2], less than 6 nM; in test [3], less than 6 nM; in test [4], 40 to 100 nM.

In the case of `COc1cc2[nH]nc(-c3cnn([C@H]4CCN(C(=O)CO)C4)c3)c2nc1-c1cccc2c1CCC2` [Example 129, (S)-1-(3-(4-(5-(2,3-Dihydro-1H-inden-4-yl)-6-methoxy-1H-pyrazolo[4,3-b]pyridin-3-yl)-1H-pyrazol-1-yl)pyrrolidin-1-yl)-2-hydroxyethan-1-one], the IC50 in test [1] (setting [6]) is 6 to 40 nM; in test [2], less than 6 nM; in test [3] it was less than 6 nM; in test [4] (setting [8]) it was 6 to 40 nM.

For the molecule `COc1cc2[nH]nc(-c3ccc(N4CC(N(C)C(=O)CO)C4)nc3)c2nc1-c1cccc(C)c1C` [Example 98, N-(1-(5-(5-(2,3-Dimethylphenyl)-6-methoxy-1H-pyrazolo[4,3-b]pyridin-3-yl)pyridin-2-yl)azetidin-3-yl)-2-hydroxy-N-methylacetamide], the IC50 is 40 to 100 nM in test [1] (setting [5]), less than 6 nM in test [2], less than 6 nM in test [3] and greater than 100 nM in test [4].

With `COc1cc2[nH]nc(-c3ccc(N4CCN5C[C@H](O)C[C@H]5C4)nc3)c2nc1-c1cccc2c1CCC2` [Example 170, (7R,8aS)-2-(5-(5-(2,3-Dihydro-1H-inden-4-yl)-6-methoxy-1H-pyrazolo[4,3-b]pyridin-3-yl)pyridin-2-yl)octahydropyrrolo[1,2-a]pyrazin-7-ol], the IC50 was 6 to 40 nM in test [1] (setting [6]), less than 6 nM in test [2], less than 6 nM in test [3] and 6 to 40 nM in test [4] (setting [8]).

Turning to `COc1cc2[nH]nc(-c3ccc(C4CC(N(C)C(=O)CO)C4)nc3)c2nc1-c1cccc2c1CCC2` (centres unmarked) [Example 178, N-(3-(5-(5-(2,3-Dihydro-1H-inden-4-yl)-6-methoxy-1H-pyrazolo[4,3-b]pyridin-3-yl)pyridin-2-yl)cyclobutyl)-2-hydroxy-N-methylacetamide], the IC50 in test [1] (setting [6]) was 6 to 40 nM; in test [2] it was less than 6 nM; in test [3], less than 6 nM; in test [4] (setting [8]) it was 6 to 40 nM.

For `COc1cc2[nH]nc(-c3ccc(C4CCC(NC(=O)[C@H](C)O)C4)nc3)c2nc1-c1cccc2c1CCC2` (stereo partly drawn) [Example 156, (2S)-N-(3-(5-(5-(2,3-Dihydro-1H-inden-4-yl)-6-methoxy-1H-pyrazolo[4,3-b]pyridin-3-yl)pyridin-2-yl)cyclopentyl)-2-hydroxypropanamid], the IC50 in test [1] (setting [6]) is 6 to 40 nM; in test [2] it was less than 6 nM; in test [3], less than 6 nM; in test [4] (setting [8]) it was 6 to 40 nM.

Turning to `COCCN1CCN(c2ccc(-c3n[nH]c4cc(OC)c(-c5cccc(CC#N)c5C)nc34)cn2)CC1` [Example 166, 2-(3-(6-Methoxy-3-(6-(4-(2-methoxyethyl)piperazin-1-yl)pyridin-3-yl)-1H-pyrazolo[4,3-b]pyridin-5-yl)-2-methylphenyl)acetonitrile], the IC50 was 40 to 100 nM in test [1] (setting [5]), less than 6 nM in test [2], less than 6 nM in test [3] and 40 to 100 nM in test [4].

As to `COc1cc2[nH]nc(-c3ccc(C4CN(C(=O)[C@H](C)O)C4)nc3)c2nc1-c1cccc2c1CCC2` [Example 177, (S)-1-(3-(5-(5-(2,3-Dihydro-1H-inden-4-yl)-6-methoxy-1H-pyrazolo[4,3-b]pyridin-3-yl)pyridin-2-yl)azetidin-1-yl)-2-hydroxypropan-1-one], the IC50 is 40 to 100 nM in test [1] (setting [5]), less than 6 nM in test [2], less than 6 nM in test [3] and 40 to 100 nM in test [4].

As for `COc1cc2[nH]nc(-c3cnn(C4CN(C(=O)CN5CCC(O)CC5)C4)c3)c2nc1-c1cccc2c1CCC2` [Example 121, 1-(3-(4-(5-(2,3-Dihydro-1H-inden-4-yl)-6-methoxy-1H-pyrazolo[4,3-b]pyridin-3-yl)-1H-pyrazol-1-yl)azetidin-1-yl)-2-(4-hydroxypiperidin-1-yl)ethan-1-one], the IC50 in test [1] (setting [6]) is 6 to 40 nM; in test [2] it was less than 6 nM; in test [3] it was less than 6 nM; in test [4], 40 to 100 nM.

Consider `COc1cc2[nH]nc(-c3cnn(C4CN(C(=O)[C@H](C)N(C)C)C4)c3)c2nc1-c1cccc2c1CCC2` [Example 118, (S)-1-(3-(4-(5-(2,3-Dihydro-1H-inden-4-yl)-6-methoxy-1H-pyrazolo[4,3-b]pyridin-3-yl)-1H-pyrazol-1-yl)azetidin-1-yl)-2-(dimethylamino)propan-1-one], for which the IC50 in test [1] (setting [6]) is 6 to 40 nM; in test [2], less than 6 nM; in test [3] it was less than 6 nM; in test [4] it was 40 to 100 nM.

Take `CCN1CC[C@H]1C(=O)N1CC(n2cc(-c3n[nH]c4cc(OC)c(-c5cccc6c5CCC6)nc34)cn2)C1` [Example 140, (S)-(3-(4-(5-(2,3-dihydro-1H-inden-4-yl)-6-methoxy-1H-pyrazolo[4,3-b]pyridin-3-yl)-1H-pyrazol-1-yl)azetidin-1-yl)(1-ethylazetidin-2-yl)methanone]: the IC50 is 6 to 40 nM in test [1] (setting [6]), less than 6 nM in test [2], less than 6 nM in test [3] and 40 to 100 nM in test [4].

As to `COCCOc1ccc(-c2n[nH]c3cc(OC)c(-c4cccc5c4CC(O)C5)nc23)cn1` (centres unmarked) [Example 95, 4-(6-Methoxy-3-(6-(2-methoxyethoxy)pyridin-3-yl)-1H-pyrazolo[4,3-b]pyridin-5-yl)-2,3-dihydro-1H-inden-2-ol], the IC50 is 40 to 100 nM in test [1] (setting [5]), less than 6 nM in test [2], 6 to 40 nM in test [3] (setting [7]) and greater than 100 nM in test [4].
